Experimental data: BindingDB's records for doi:10.1021/jm00100a005 (Eli Lilly, 1992)

Molecular target: Muscarinic acetylcholine receptor M1 (Oryctolagus cuniculus)
Experiment: Efficacy at muscarinic acetylcholine receptor M1 measured by the ability to inhibit the electrically stimulated twitch of the rabbit vas deferens

- IC50: 1 pM
SMILES: CCCCCCSc1nsnc1C1=CCCN(C)C1 [5-(4-Hexylsulfanyl-[1,2,5]thiadiazol-3-yl)-1-methyl-1,2,3,6-tetrahydro-pyridine; oxalic acid]
